Experiment in all cases: growth of human tumour cells (NCI), 48 h
For test [1], the system named is ACHN renal.
In test [2] the test system is HCT-15 colon.
Test [3] has as its system HL-60(TB) leukemia.
Test [4] deals with KM12 colon.
Test [5] has as its system M14 melanoma.
Test [6] relates to NCI-H460 lung.
Test [7] relates to OVCAR-5 ovarian.
The test system of test [8] is SK-MEL-28 melanoma.
The test system of test [9] is SW-620 colon.
Test [10] deals with SN12C renal.

Each structure is given as a SMILES string.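 Exposure lasted 48 hours, with cells grown in 96-well plates and compounds tested at five concentrations. Here, GI50 denotes the concentration required for 50% inhibition of growth. TGI is the concentration that stops growth completely.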

For the compound `COC(=O)C(=O)C(C(=O)C(=O)Nc1cccc(C(C)=O)c1)c1nc2ccccc2[nH]c1=O` (stereo not given), the TGI in test [1], in test [2], in test [3], in test [4], in test [5] and in test [6] was greater than 100 µM each time. The TGI in test [7], in test [8] and in [9] was greater than 100 µM in each case.
On to `Cc1cc(Cl)ccc1Nc1nc(C(F)(F)F)ccc1C(=O)N/N=C/c1ccc([N+](=O)[O-])cc1`, for which the GI50 in [1] is 1.08 µM; in [2], 0.803 µM; in test [4] it was 0.838 µM; in test [5] it was 2.18 µM; in test [6], 2.28 µM; in test [7], 2.99 µM. Further, the GI50 in [8] was 1.22 µM; in [10], 2.92 µM; in test [9], 1.07 µM. Besides, the TGI was 5.14 µM in [1]; 2.43 µM in test [4]; 7.96 µM in [5]; 7.45 µM in [6]; greater than 100 µM in [7]; greater than 100 µM in test [10].
`CC(=O)NC(CCCCNC(=O)NCCCl)C(=O)NCc1ccccc1` (stereo not given): the TGI in test [1], in [2], in test [3], in test [4], in [5] and in [6] was greater than 100 µM each time. The TGI in test [8], in [10] and in [9] was greater than 100 µM each time.
For the compound `OC1(c2ccccc2)OC(C#Cc2ccccc2)(c2ccccc2)c2ccccc21` (stereo not given), the TGI is 13.1 µM in [2]; greater than 100 µM in [3]; 2.99 µM in test [4]; 3.97 µM in test [5]; 17.7 µM in test [6]; 16.8 µM in test [7]. Besides, the TGI was determined as 10.2 µM in test [10] and 15.4 µM in [9].
Consider `COC(=O)[C@]12CCC(C)[C@H](C)[C@H]1C1=CCC3[C@@]4(C)CC[C@H](OC(C)=O)C(C)(C)C4CC[C@@]3(C)C1(C)C(O)C2` (stereo not given in full), for which the TGI in test [1], in test [4], in test [5], in [6], in test [7] and in test [8] was greater than 100 µM throughout. For the same compound, the TGI in test [10] and in test [9] was greater than 100 µM each time.
`O=[N+]([O-])c1cnn(C2=CNc3ccccc3N=C2)c1`: the TGI in [1], in test [2], in test [3], in test [6], in test [7] and in test [8] was greater than 100 µM in each case. Further, the TGI in [10] was greater than 100 µM.
`C/C(=N\N(c1ccccc1)c1ccccc1)c1c(O)cc(C)oc1=O`: the TGI in test [1], in [2], in test [4], in [5], in [6] and in test [8] was greater than 100 µM in each case. Further, the TGI in [10] and in test [9] was greater than 100 µM each time.
For the compound `CN(C)CC1CCC/C1=N\O` (stereo not given), the TGI in test [1], in test [2], in test [5], in test [6], in [7] and in test [8] was greater than 100 µM throughout. Moreover, the TGI in test [10] and in [9] was greater than 100 µM in each case.
For `CN(C)/N=C(/c1nc2ccc(Cl)cc2[nH]c1=O)C(O)c1ccc(C(O)/C(=N\N(C)C)c2nc3ccc(Cl)cc3[nH]c2=O)cc1` (stereo not given), the TGI in test [1], in test [3], in [4], in test [5], in [6] and in test [7] was greater than 100 µM in each case. Further, the TGI in [8], in test [10] and in test [9] was greater than 100 µM in each case.
As to `CCC1=NC(CO)[C@H](c2ccccc2)O1` (stereo not given in full), the TGI in test [1], in test [2], in [4], in test [6], in [7] and in [8] was greater than 100 µM in each case. The TGI in [10] and in test [9] was greater than 100 µM each time.
Regarding `CCOC(=O)c1cc(/C=C/C(C)=C/C(=O)OC)oc1C`, the TGI in test [1], in test [2], in test [3], in test [4], in [5] and in test [6] was greater than 100 µM throughout. Besides, the TGI in [7], in test [8] and in test [9] was greater than 100 µM each time.
As for `CN1CC[C@]2(C)c3ccc(O)cc3CC3CCCC1C32C` (stereo not given in full), the TGI in [1], in test [2], in test [3], in test [4], in test [5] and in [6] was greater than 100 µM throughout. The TGI in [7], in test [8] and in [10] was greater than 100 µM in each case.
In the case of `COc1cc(/C=C2\C(=O)Nc3ccc(N(C)C)cc32)cc(OC)c1OC`, the GI50 in [1] is 4.72 µM; in test [2], 1.23 µM; in test [3], 1.35 µM; in test [4], 1.69 µM; in test [6] it was 2.98 µM; in test [7] it was 5.86 µM. The GI50 in test [8] was 5.87 µM; in test [10], 4.26 µM; in test [9], 2.7 µM. In addition, the TGI was 98.4 µM in test [1]; 49.8 µM in test [2]; 5.8 µM in test [3]; 13.2 µM in [4]; greater than 29.1 µM in [6]; greater than 80.2 µM in test [7]. Also, the TGI in [8] is greater than 100 µM; in test [10] it was 42.3 µM; in test [9], greater than 100 µM.

(Values after PubChem BioAssay (NCI).)
